The values below come from patent US20230014352A1, “INHALED STATINS AS BRONCHODILATORS TO IMPROVE LUNG FUNCTION IN RESPIRATORY DISEASES” (priority 2019, published 2023).

Structures are written as SMILES. “Also recorded” adds a separate entry of the source. Like-named read-outs stand apart in the source and are kept apart here.

Data set [1] deals with primary human airway smooth muscle (ASM) cells. The experiment in a line: Contractile force screening (CFS), basal ASM cell contraction (strain energy). The data set is classed as cell-based. The conditions noted are these: for strain energy (ASM contraction) / basal ASM cell contraction: 24 hours; for strain energy (ASM contraction): compared to pravastatin, FIG. 1C; for basal ASM cell contraction: FIG. 1A/1D. The procedure:
Primary human airway smooth muscle (ASM) cells derived from both non-asthmatic and asthmatic donors were obtained from the Gift of Hope Organ and Tissue Donor Network. These cells have been well-characterized previously (see for example H. Yoshie et al., Biophys J (2018) 114(9):2194-99). All measurements were performed using cells at passage 5-8 from three non-asthmatic donors. Cells were grown on either 10% serum-containing F12 complete media, or serum-deprived media supplemented with insulin, transferrin, and selenium (Corning, Tewksbury, Mass.). Contractile Force Screening: Human ASM cells were grown to confluence in 96-well plates on custom NuSilTM 8100 elastic substrates (Avantor, Inc., Radnor, Pa.) (R. […] Fluorescent beads (diameter 400 nm) were embedded in the substrate surface to enable traction force calculations based on their displacements. To measure fractions, an inverted epi-fluorescence microscope (DMI 6000B, Leica Inc., Germany) equipped with a heated chamber (37° C.), a monochrome camera ([…]), and a motorized stage was used. Spatial images were recorded of substrate-embedded fluorescent beads at 10× magnification. Based on the bead displacements (resolution 15 μm) relative to a cell-free model, together with knowledge of substrate stiffness and thickness, fractions were computed using the approach of Fourier Transform Traction Cytometry ([…] et al., Pharmacol Ther (2014) 143(1):87-110), modified to the case of cell monolayers ([…] et al., Cell (2007) 129(3):511-22). From each fraction map, the root-mean-squared traction (RMST) value and strain energy were calculated and reported as a measure of normal contraction in the monolayer. On a well-by-well basis, the ratio of the strain energy after vs. before treatment was computed, and all values of a given treatment group were normalized to the mean of each treatment group. Comparison of Statins: […] MA is the immediate product of HMGCR action on HMB-CoA, so addition of MA would reverse the effect of statin inhibition of HMGCR. […] Simvastatin-acid (SA), atorvastatin, pravastatin, and pitavastatin were examined with CFS to determine the dose response of the ASM relaxation effect. […] From each ASM force map, the strain energy (i.e., the energy that is imparted to the substrate by the contractile cells, in pJ) was computed, to represent the average cellular contraction.

Data set [2] deals with precision-cut human lung slices. The experiment in a line: Histamine-induced bronchoconstriction in precision-cut human lung slices, pitavastatin and isoproterenol. The conditions noted are these: 30 μM for 30 min after histamine 10 μM 15 min; FIG. 13. The procedure: The experiment was performed under serum-deprived media conditions, n=3-7 airways per group. Changes in lumen narrowing were reported as percentage changes (±SEM) of the pre-treatment state (see FIG. 13). The absolute value of lumen airway area was not statistically different between the pitavastatin and control groups at the pre-treatment state.

The test system of data set [3] is ASM cells. As to the kind of experiment: Simulated deep breath (stretch-unstretch), cell mapping rheometry and CFS. The conditions noted are these: 10 μM, 30 min. Type of data set: cell-based, human. The procedure:
Well-defined biaxial stretch (4 sec duration, 10% magnitude) was imposed using the method of cell mapping rheometry. The strain energy from each ASM force map was computed as a metric of average cellular contraction, and reported as fold changes to the pre-stretch baseline value.
Normal ASM was treated with pitavastatin (1 μM, 24 hrs, n=7), isoproterenol (10 μM, 30 min, n=6) or vehicle (n=7), and examined by CFS as described above. […] Shown are contraction values normalized to the untreated control group. […] The contraction force gradually recovered over 180 seconds. […] All data are reported as mean and standard error of the mean (SEM).

Data set [4] deals with ASM cells. As to the kind of experiment: RealTime-Glo Annexin V Apoptosis and Necrosis assay. Type of data set: cell-based, human. Here is the method: Lack of apoptosis: Some studies have shown that statins at high enough doses can reduce the viability of vascular smooth muscle cells, epithelial cells, and endothelial cells (S. Ghavami et al., Biochim Biophys Acta (2014) 1843(7):1259-71; T. P. Miettinen et al., Cell Rep (2015) 13(11):2610-20).
RealTime-Glo™ Annexin V Apoptosis and Necrosis assay was performed by growing ASM cells on 96-well white cell culture plate according to the manufacturer's instructions (Promega Inc). […] In this real-time annexin V binding assay, the luminescence signal was detected for apoptosis and necrosis was detected with a fluorescence signal by using a SpectraMax® plate reader. […] (20 μg/mL) was used as a positive control (FIG. 2).

Data set [5] is described as follows: Tissue distribution of inhaled (nebulized) simvastatin, mass spectrometry. Particulars: day 12, organs collected after euthanasia.

In the case of `CC(C)c1c(C(=O)Nc2ccccc2)c(-c2ccccc2)c(-c2ccc(F)cc2)n1CC[C@@H](O)C[C@@H](O)CC(=O)O` [atorvastatin], the “strain energy (ASM contraction)” value in data set [1] (2 and 10 μM) is recorded as “significantly (and further) reduce strain energy”.

`CC(C)NCC(O)c1ccc(O)c(O)c1` (centres unmarked) [isoproterenol]: in data set [2], the “histamine (Hist)-induced bronchoconstriction” value is “reduced”. The “basal ASM contraction compared to untreated controls” value in data set [3] (FIG. 12A) is on record as “significantly inhibited basal ASM contraction”. For the same compound, in data set [3] (FIG. 12B), the “augmentation of stretch-induced ASM force relaxation” value was “not conferred; also recorded: notably absent”.

In the case of `CC[C@H](C)C(=O)O[C@H]1C[C@H](O)C=C2C=C[C@H](C)[C@H](CC[C@@H](O)C[C@@H](O)CC(=O)O)[C@H]21` [pravastatin], the “apoptosis and necrosis (cell death)” value in data set [4] is on record as “no evidence of apoptosis or cell death”. Also, in data set [1] (0.4 μM), the “strain energy (ASM contraction)” value was “no effect”.

As to `CC(C)c1nc(N(C)S(C)(=O)=O)nc(-c2ccc(F)cc2)c1/C=C/[C@@H](O)C[C@@H](O)CC(=O)O` [rosuvastatin], the “apoptosis and necrosis (cell death)” value in data set [4] was “no evidence of apoptosis or cell death”. Further, the “basal ASM cell contraction” value in data set [1] (1 μM) was “little to no effect”.

As for `CCC(C)(C)C(=O)O[C@H]1C[C@@H](C)C=C2C=C[C@H](C)[C@H](CC[C@@H](O)C[C@@H](O)CC(=O)O)[C@H]21` [simvastatin acid], the “dose-dependent effect on ASM” value in data set [1] (primary ASM cells from three different human donors, FIG. 3) was “dose-dependently relax ASM”. The “start of ASM relaxing effects” value in data set [1] (time-dependent effects, FIG. 4C) turned out to be 4 h.

Turning to `CCC(C)(C)C(=O)O[C@H]1C[C@@H](C)C=C2C=C[C@H](C)[C@H](CC[C@@H]3C[C@@H](O)CC(=O)O3)[C@H]21` [simvastatin], the “apoptosis and necrosis (cell death)” value in data set [4] (statin doses tested, FIGS. 2B-E) is on record as “no evidence of apoptosis or cell death”. In data set [1] (1 μM), the “basal ASM cell contraction” value is listed as “more potent”. Further, the “ASM contraction over time compared to control” value in data set [1] (1 μM, serum-deprived media, FIG. 10B) was “reduced ASM contraction time-dependently”. In addition, the tissue distribution entry in data set [5] was “mostly present in the mainstem bronchi and the lower lobes”.
